Test results reported in patent US20250051321A1, “TRICYCLIC DERIVATIVE AND PREPARATION METHOD THEREFOR AND APPLICATION THEREOF” (SHANGHAI JEMINCARE PHARMACEUTICAL CO., LTD., priority 2021, published 2025).

biological target: ATX (Homo sapiens (Human), UniProt Q13822); experiment: ATX enzyme inhibition assay (Amplex UltraRed/choline oxidase/HRP, 16:0 Lyso PC substrate); type: biochemical; settings: assay buffer pH 7.5; read-out: IC50 (nM) pH 7.5
Method: All compounds were prepared as a 10 mM DMSO stock solution.
Solutions at pH 8.5 and pH 7.5 were prepared respectively with the following formulations:
All compounds, including the positive control compound, were diluted 5-fold from 10 mM to 2 mM with DMSO in the first step. The mixture was then diluted to 100 μM with 1× assay buffer.
3. Separate Detection of Compounds with 1× Assay Buffer at Two pH Values:
a) 5 μL of 10× compound diluent was added to a 384-well plate (Greiner 781209) using a motorized pipette (see the “experimental preparation” step). 5 μL of 1× assay buffer containing 5% DMSO was added to both negative and positive control wells. The plate was centrifuged at 300 rpm for 1 minute at room temperature.
b) 2× ATX ([…]) was prepared with 1× assay buffer, and 25 μL of 2× ATX was added to the plate using a motorized pipette. 25 μL of 1× assay buffer was added to the negative control wells and 25 μL of 2× ATX was added to the positive control wells. The plate was centrifuged at 300 rpm for 1 minute at room temperature.
The plate was incubated at room temperature for 10 minutes.
c) 2.5× working solution containing Amplex UltraRed reagent (125 μM), HRP (2.5 U/mL), choline oxidase (1.25 U/mL), and 16:0 Lyso PC (75 μM) was prepared with 1× assay buffer. 20 μL of 2.5× working solution was added to all reaction wells using a motorized pipette. The plate was centrifuged at 300 rpm for 1 minute at room temperature.
d) The plate was detected by SpectraMax with the following procedures: fluorescence mode; excitation at 550 nm; emission at 590 nm; kinetics; read once every 2 minutes; read continuously for 60 minutes.
The calculation formula of % inhibition (i.e., % inhibition rate) was as follows: […]
V0: X-axis is taken as 0 to 30 minutes, Y-axis is taken as fluorescence readings, and the slope corresponding to the straight line fitted by the software GraphPad Prism 8 is the initial response rate.
V0max: Average V0 of the positive control wells in the plate.
V0min: Average V0 of the negative control wells in the plate.
The IC50 of the compounds was calculated from a nonlinear regression line (dose-initial response rate) fitted by % inhibition and log value of compound concentration using the software GrahPad Prism 8.

Row | IC50 | SMILES
1 | 656 nM | CN(c1nc(-c2ccc(F)cc2)c(C#N)s1)c1c2c(nc3c(F)cc(N4CCN(CC(=O)N5CC(F)(F)C5)CC4)cc13)CCC2 [Example A15]
2 | 132 nM | CN(c1nc(-c2ccc(F)cc2)c(C#N)s1)c1c2c(nc3c(F)cc(N4CC5(CN(C(=O)[C@@H]6CCOC6)C5)C4)cc13)CCO2 [Example C11]

same assay, conditions: assay buffer pH 8.5; read-out: IC50 (nM) pH 8.5

Row | SMILES | IC50
3 | CN(c1nc(-c2ccc(F)cc2)c(C#N)s1)c1c2c(nc3c(F)cc(N4CCN(CC(=O)N5CC(O)C5)CC4)cc13)C(O)CC2 (stereo not drawn) [E1-1] | 21.3 nM
4 | N#Cc1cc(Br)cc(F)c1NC1=CCCC1=O [E1-2] | 18.2 nM
5 | CN(c1nc(-c2ccc(F)cc2)c(C#N)s1)c1c2c(nc3c(F)cc(N4CCN(CC(=O)N5CC(F)(F)C5)CC4)cc13)CCC2 [Example A15] | 134 nM
6 | CN(c1nc(-c2ccc(F)cc2)c(C#N)s1)c1c2c(nc3c(F)cc(N4CC5(CN(CC(=O)N6CC(O)C6)C5)C4)cc13)CCO2 [Example A23] | 75.3 nM
7 | CN(c1nc(-c2ccc(F)cc2)c(C#N)s1)c1c2c(nc3c(F)cc(N4CCN(CC(=O)N5CC(O)C5)CC4)cc13)CCCC2 [Example A27] | 111 nM
8 | CN(c1nc(-c2ccc(F)cc2)c(C#N)s1)c1c2c(nc3c(F)cc(N4CC5(CN(CC(=O)N6CC(CO)C6)C5)C4)cc13)COC2 [Example A28] | 226 nM
9 | CN(c1nc(-c2ccc(F)cc2)c(C#N)s1)c1c2c(nc3c(F)cc(N4CC5(CN(CC(=O)N6CC(CO)C6)C5)C4)cc13)CCO2 [Example A29] | 111 nM
10 | C[C@H]1CN(CC(=O)N2CC(O)C2)CCN1c1cc(F)c2nc3c(c(N(C)c4nc(-c5ccc(F)cc5)c(C#N)s4)c2c1)COC3 [Example A30] | 22.1 nM
11 | C[C@@H]1CN(CC(=O)N2CC(O)C2)CCN1c1cc(F)c2nc3c(c(N(C)c4nc(-c5ccc(F)cc5)c(C#N)s4)c2c1)COC3 [Example A31] | 26.9 nM
12 | C[C@@H]1CN(c2cc(F)c3nc4c(c(N(C)c5nc(-c6ccc(F)cc6)c(C#N)s5)c3c2)COC4)CCN1CC(=O)N1CC(O)C1 [Example A32] | 94.3 nM
13 | C[C@H]1CN(c2cc(F)c3nc4c(c(N(C)c5nc(-c6ccc(F)cc6)c(C#N)s5)c3c2)COC4)CCN1CC(=O)N1CC(O)C1 [Example A33] | 44.6 nM
14 | CN(c1nc(-c2ccc(F)cc2)c(C#N)s1)c1c2c(nc3c(F)cc(N4CC5(CN(CC(=O)N6CC(C)(O)C6)C5)C4)cc13)COC2 [Example A34] | 446 nM
15 | CN(c1nc(-c2ccc(F)cc2)c(C#N)s1)c1c2c(nc3c(F)cc(N4CCN(CC(=O)N5CC(C)(O)C5)CC4)cc13)COC2 [Example A35] | 66.8 nM
16 | CN(c1nc(-c2ccc(F)cc2)c(C#N)s1)c1c2c(nc3c(F)cc(N4CC5(CN(C(=O)[C@@H]6CCOC6)C5)C4)cc13)CCO2 [Example C11] | 61.9 nM
17 | CN(c1nc(-c2ccc(F)cc2)c(C#N)s1)c1c2c(nc3c(F)cc(N4CC5(CN(C(=O)C(C)(C)O)C5)C4)cc13)COC2 [Example C21] | 49.1 nM
18 | CN(c1nc(-c2ccc(F)cc2)c(C#N)s1)c1c2c(nc3c(F)cc(N4CC5(CN(C(=O)C6(O)CC6)C5)C4)cc13)COC2 [Example C22] | 73 nM

Results, then the molecule that gave them:

Row | IC50 | SMILES
19 | 23.7 nM | CN(c1nc(-c2ccc(F)cc2)c(C#N)s1)c1c2c(nc3c(F)cc(N4CC5(CN(C(=O)[C@H]6CCOC6)C5)C4)cc13)[C@@H](O)CC2 (single isomer, unassigned) [Example E5-b]
20 | 18.3 nM | C[C@@H]1CN(CC(=O)N2CC(O)C2)CCN1c1cc(F)c2nc3c(c(N(C)c4nc(-c5ccc(F)cc5)c(C#N)s4)c2c1)CC[C@@H]3O (single isomer, unassigned) [Example E6-a]
21 | 18.9 nM | C[C@H]1CN(CC(=O)N2CC(O)C2)CCN1c1cc(F)c2nc3c(c(N(C)c4nc(-c5ccc(F)cc5)c(C#N)s4)c2c1)CC[C@H]3O (single isomer, unassigned) [Example E7-b]
22 | 19.4 nM | C[C@H]1CN(c2cc(F)c3nc4c(c(N(C)c5nc(-c6ccc(F)cc6)c(C#N)s5)c3c2)CC[C@H]4O)CCN1CC(=O)N1CC(O)C1 (single isomer, unassigned) [Example E8-b]
23 | 20.2 nM | CN(c1nc(-c2ccc(F)cc2)c(C#N)s1)c1c2c(nc3c(F)cc(N4CC5(CN(C(=O)[C@@H]6CCOC6)C5)C4)cc13)[C@H](O)CC2 (single isomer, unassigned) [Example E13-b]
24 | 16.6 nM | CN(c1nc(-c2ccc(F)cc2)c(C#N)s1)c1c2c(nc3c(F)cc(N4CC5(CN(C(=O)C6CCOCC6)C5)C4)cc13)[C@@H](O)CC2 (single isomer, unassigned) [Example E14-a]
25 | 14.7 nM | CN(c1nc(-c2ccc(F)cc2)c(C#N)s1)c1c2c(nc3c(F)cc(N4CC5(CN(C(=O)C6CCOCC6)C5)C4)cc13)[C@H](O)CC2 (single isomer, unassigned) [Example E14-b]
26 | 18.5 nM | CN(c1nc(-c2ccc(F)cc2)c(C#N)s1)c1c2c(nc3c(F)cc(N4CC5(CN(C(=O)C6(O)CCOCC6)C5)C4)cc13)[C@H](O)CC2 (single isomer, unassigned) [Example E15-b]
27 | 23 nM | CN(c1nc(-c2ccc(F)cc2)c(C#N)s1)c1c2c(nc3c(F)cc(N4CC5(CN(C(=O)C(C)(C)O)C5)C4)cc13)[C@H](O)CC2 (single isomer, unassigned) [Example E16-b]
28 | 22.4 nM | CN(c1nc(-c2ccc(F)cc2)c(C#N)s1)c1c2c(nc3c(F)cc(N4CC5(CN(C(=O)N6CCCC6)C5)C4)cc13)[C@@H](O)CC2 (single isomer, unassigned) [Example E17-a]
29 | 21.5 nM | CN(c1nc(-c2ccc(F)cc2)c(C#N)s1)c1c2c(nc3c(F)cc(N4CC5(CN(C(=O)N6CCCC6)C5)C4)cc13)[C@H](O)CC2 (single isomer, unassigned) [Example E17-b]
30 | 23.4 nM | CN1CC[C@H](C(=O)N2CC3(C2)CN(c2cc(F)c4nc5c(c(N(C)c6nc(-c7ccc(F)cc7)c(C#N)s6)c4c2)CC[C@@H]5O)C3)C1 (single isomer, unassigned) [Example E18-a]
31 | 37.1 nM | CN1CC[C@H](C(=O)N2CC3(C2)CN(c2cc(F)c4nc5c(c(N(C)c6nc(-c7ccc(F)cc7)c(C#N)s6)c4c2)CC[C@H]5O)C3)C1 (single isomer, unassigned) [Example E18-b]
32 | 18.1 nM | CN(c1nc(-c2ccc(F)cc2)c(C#N)s1)c1c2c(nc3c(F)cc(N4CC5(CN(C(=O)[C@@H]6COC[C@H]6O)C5)C4)cc13)[C@@H](O)CC2 (single isomer, unassigned) [Example E20-a]
33 | 17 nM | CN(c1nc(-c2ccc(F)cc2)c(C#N)s1)c1c2c(nc3c(F)cc(N4CC5(CN(C(=O)[C@@H]6COC[C@H]6O)C5)C4)cc13)[C@H](O)CC2 (single isomer, unassigned) [Example E20-b]
34 | 25.7 nM | CN(c1nc(-c2ccc(F)cc2)c(C#N)s1)c1c2c(nc3c(F)cc(N4CC5(CN(C(=O)[C@H]6COC[C@@H]6O)C5)C4)cc13)[C@@H](O)CC2 (single isomer, unassigned) [Example E20-c]
35 | 29.2 nM | CN(c1nc(-c2ccc(F)cc2)c(C#N)s1)c1c2c(nc3c(F)cc(N4CC5(CN(C(=O)[C@H]6COC[C@@H]6O)C5)C4)cc13)[C@H](O)CC2 (single isomer, unassigned) [Example E20-d]
36 | 3.46 nM | CN(c1nc(-c2ccc(F)cc2)c(C#N)s1)c1c2c(nc3c(F)cc(N4CCN(CC(=O)N5CC(O)C5)CC4)cc13)C(=O)CC2 [Example E2]
37 | 30.7 nM | CN(c1nc(-c2ccc(F)cc2)c(C#N)s1)c1c2c(nc3c(F)cc(N4CC5(CN(C(=O)[C@H]6CCOC6)C5)C4)cc13)C(=O)CC2 [Example E3]
38 | 24.5 nM | CN(c1nc(-c2ccc(F)cc2)c(C#N)s1)c1c2c(nc3c(F)cc(N4CC5(CN(C(=O)[C@@H]6CCOC6)C5)C4)cc13)C(=O)CC2 [Example E4]
39 | 21.8 nM | CN(c1nc(-c2ccc(F)cc2)c(C#N)s1)c1c2c(nc3c(F)cc(N4CC5(CN(C(=O)C6CCOC6)C5)C4)cc13)C(O)CC2 (stereo not drawn) [Example E5]
